Laboratory results from patent US11820760B2, “Crystalline polymorphs of Bruton's tyrosine kinase inhibitors” (BIOGEN MA INC., priority 2018, dated 2023).
Values belong to the compound of their own block, whether it stands above or below them.

What was measured:
Format in all cases: physicochemical
[1] = Variable temperature powder X-ray diffraction (VT-PXRD) of crystalline forms
Experimental: Crystallinity of the compound was studied using a XRD-D8 X-ray powder diffractometer using Cu Ka radiation (Bruker, Madison, Wis.). The instrument is equipped with a long fine focus X-ray tube. The tube voltage and amperage were set to 40 kV and 40 mA, respectively. The divergence and scattering slits were set at 1° and the receiving slit was set at 0.15 mm. Diffracted radiation was detected by a Lynxeye detector. A θ-2θ continuous scan at 1.6°/min from 3 to 42° 2θ was used. The sample was prepared for analysis by placing it on a zero background plate. Variable temperature powder X-ray diffraction (VT-PXRD) of Form B was performed by hearing a sample of Form B to 130° C. under N2, following by cooling back down to 30° C. […] (losing all water at this temperature) under N2, indicating Form B is a hygroscopic anhydrate. Variable temperature powder X-ray diffraction (VT-PXRD) of Form C was performed. A sample of Form C was dehydrated by purging the sample under N2 at 30° C. for 20 minutes and then heated to 100° C. under N2 followed by cooling back down to 30° C. and exposed to air for 20 minutes.

[2] = PXRD comparison of Form H before and after heating; conditions: heated to 125° C.
Experimental: Crystallinity of the compound was studied using a XRD-D8 X-ray powder diffractometer using Cu Ka radiation (Bruker, Madison, Wis.). The instrument is equipped with a long fine focus X-ray tube. The tube voltage and amperage were set to 40 kV and 40 mA, respectively. The divergence and scattering slits were set at 1° and the receiving slit was set at 0.15 mm. Diffracted radiation was detected by a Lynxeye detector. A θ-2θ continuous scan at 1.6°/min from 3 to 42° 2θ was used. The sample was prepared for analysis by placing it on a zero background plate. A sample of Form H was heated to 125° C. and PXRD pattern was compared with PXRD pattern for the sample before heating.

[3] = PXRD of Form P after grinding in water; conditions: Form P with 2.9 wt % water ground in water with mortar and pestle to a viscous slurry
Experimental: Crystallinity of the compound was studied using a XRD-D8 X-ray powder diffractometer using Cu Ka radiation (Bruker, Madison, Wis.). The instrument is equipped with a long fine focus X-ray tube. The tube voltage and amperage were set to 40 kV and 40 mA, respectively. The divergence and scattering slits were set at 1° and the receiving slit was set at 0.15 mm. Diffracted radiation was detected by a Lynxeye detector. A θ-2θ continuous scan at 1.6°/min from 3 to 42° 2θ was used. The sample was prepared for analysis by placing it on a zero background plate. Crystalline Form P with 2.9 wt % of water were prepared using similar procedures as described in Method A. Dichloromethane (15V) and n-propyl acetate (35 V) were used as solvents and the DSC/TGA graph is shown in FIG. 25. Crystalline Form P with 2.9 wt % of water was ground in water using a mortar and pestle to produce a viscous slurry. The sample was rapidly prepared, covered with Kapton film and analyzed by PXRD.

form conversion after exposure to air (VT-PXRD) ([1]; exposure to air for about 2.5 hours, re-absorbs water): converts back to Form C
Structure (SMILES): Cn1cc(Nc2nccc(-c3ccc4c(c3)CN(C3COC3)CC[C@H]4NC(=O)c3cn(C(C)(C)C)nn3)n2)cn1 [Form L, (R)-1-(tert-butyl)-N-(8-(2-((1-methyl-1H-pyrazol-4-yl)amino)pyrimidin-4-yl)-2-(oxetan-3-yl)-2,3,4,5-tetrahydro-1H-benzo[c]azepin-5-yl)-1H-1,2,3-triazole-4-carboxamide]

PXRD peak shifts after grinding in water [3]: No peak shifts
Structure (SMILES): Cn1cc(Nc2nccc(-c3ccc4c(c3)CN(C3COC3)CC[C@H]4NC(=O)c3cn(C(C)(C)C)nn3)n2)cn1 [Form P, (R)-1-(tert-butyl)-N-(8-(2-((1-methyl-1H-pyrazol-4-yl)amino)pyrimidin-4-yl)-2-(oxetan-3-yl)-2,3,4,5-tetrahydro-1H-benzo[c]azepin-5-yl)-1H-1,2,3-triazole-4-carboxamide]

More lines, now with the values behind:

Structure (SMILES): Cn1cc(Nc2nccc(-c3ccc4c(c3)CN(C3COC3)CC[C@H]4NC(=O)c3cn(C(C)(C)C)nn3)n2)cn1 [Form B, (R)-1-(tert-butyl)-N-(8-(2-((1-methyl-1H-pyrazol-4-yl)amino)pyrimidin-4-yl)-2-(oxetan-3-yl)-2,3,4,5-tetrahydro-1H-benzo[c]azepin-5-yl)-1H-1,2,3-triazole-4-carboxamide]
form conversion after heating (VT-PXRD) ([1]; heated to 130° C. under N2, then cooled back to 30° C.): No form conversion

Structure (SMILES): Cn1cc(Nc2nccc(-c3ccc4c(c3)CN(C3COC3)CC[C@H]4NC(=O)c3cn(C(C)(C)C)nn3)n2)cn1 [Form C, (R)-1-(tert-butyl)-N-(8-(2-((1-methyl-1H-pyrazol-4-yl)amino)pyrimidin-4-yl)-2-(oxetan-3-yl)-2,3,4,5-tetrahydro-1H-benzo[c]azepin-5-yl)-1H-1,2,3-triazole-4-carboxamide]
form conversion after dehydration (VT-PXRD) ([1]; purging with N2 for 20 minutes at 30° C.): converted to Form L

Structure (SMILES): Cn1cc(Nc2nccc(-c3ccc4c(c3)CN(C3COC3)CC[C@H]4NC(=O)c3cn(C(C)(C)C)nn3)n2)cn1 [Form H, (R)-1-(tert-butyl)-N-(8-(2-((1-methyl-1H-pyrazol-4-yl)amino)pyrimidin-4-yl)-2-(oxetan-3-yl)-2,3,4,5-tetrahydro-1H-benzo[c]azepin-5-yl)-1H-1,2,3-triazole-4-carboxamide]
form conversion after heating (PXRD before/after) [2]: no form conversion
